pIC50: −log10 of the molar value.
Key:
Carbonic anhydrase 1 = Carbonic anhydrase 1 (Homo sapiens, UniProt P00915); test: In Vitro Inhibition Assay
Procedure: (§1) For the inhibition studies of sulfonamide, different concentrations of these compounds were added to the enzyme. Activity percentage values of CA for different concentrations of each sulfonamide were determined by regression analysis usingMicrosoft Office 2000 Excel (New York, NY). CA enzyme activity without a sulfonamide solution was accepted to be 100%.

Carbonic anhydrase 2 = Carbonic anhydrase 2 (Homo sapiens, UniProt P00918); test: In Vitro Inhibition Assay
Procedure: as §1

Sequence of Carbonic anhydrase 1 (P00915 whole entry): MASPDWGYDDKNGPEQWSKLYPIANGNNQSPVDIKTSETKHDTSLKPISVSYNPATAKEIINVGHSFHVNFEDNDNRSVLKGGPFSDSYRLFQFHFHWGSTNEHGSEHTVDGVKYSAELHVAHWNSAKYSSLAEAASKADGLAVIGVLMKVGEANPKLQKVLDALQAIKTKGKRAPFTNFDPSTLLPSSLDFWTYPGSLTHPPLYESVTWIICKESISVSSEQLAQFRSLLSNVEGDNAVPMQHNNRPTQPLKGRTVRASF

Work on CN1C(=O)C(=CNc2ccc(S(N)(=O)=O)cc2)C(=O)N(C)C1=O [4-((1,3-Dimethyl-2,4,6-trioxo-tetrahydropyrimidin-5(6H)-ylidene)methylamino)benzene-sulfonamide (2e)] yielded a pIC50 (Carbonic anhydrase 1) of 5.28 and a pIC50 (Carbonic anhydrase 2) of 5.60.

Compound NS(=O)(=O)c1ccc(NC=C2C(=O)CC(c3ccco3)CC2=O)cc1 (stereo unspecified) [4-((4-(Furan-2-yl)-2,6-dioxocyclohexylidene)methylamino)benzenesulfonamide (2d)] has a pIC50 (Carbonic anhydrase 1) of 5.06 and a pIC50 (Carbonic anhydrase 2) of 5.14.

With NS(=O)(=O)c1ccc(NC=C2C(=O)c3ccccc3C2=O)cc1 [4-((1,3-Dioxo-1H-inden-2(3H)-ylidene)methylamino)benzene-sulfonamide (2g)] the pIC50 (Carbonic anhydrase 1) was 5.50 and the pIC50 (Carbonic anhydrase 2) was 5.47.

Work on NS(=O)(=O)c1ccc(NC=C2C(=O)CCCC2=O)cc1 [4-((2,6-Dioxocyclohexylidene)methylamino)benzenesulfonamide (2a)] yielded a pIC50 (Carbonic anhydrase 1) of 5.37 and a pIC50 (Carbonic anhydrase 2) of 5.31.

Compound NS(=O)(=O)c1ccc(NC=C2C(=O)NC(=O)NC2=O)cc1 [4-((2,4,6-Trioxo-tetrahydropyrimidin-5(6H)-ylidene)methylamino)benzene-sulfonamide (2f)] has a pIC50 (Carbonic anhydrase 1) of 4.96 and a pIC50 (Carbonic anhydrase 2) of 5.00.

For CC1(C)CC(=O)C(=CNc2ccc(S(N)(=O)=O)cc2)C(=O)C1 [4-((4,4-Dimethyl-2,6-dioxocyclohexylidene)methylamino)benzene-sulfonamide (2b)], the pIC50 (Carbonic anhydrase 1) was 5.67 and the pIC50 (Carbonic anhydrase 2) was 5.19.

NS(=O)(=O)c1ccc(NC=C2C(=O)CCC2=O)cc1 [4-((2,5-Dioxocyclopentylidene)methylamino)benzenesulfonamide (2h)] gave a pIC50 (Carbonic anhydrase 1) of 5.32 and a pIC50 (Carbonic anhydrase 2) of 5.47.

CC1(C)OC(=O)C(=CNc2ccc(S(N)(=O)=O)cc2)C(=O)O1 [4-((2,2-Dimethyl-4,6-dioxo-1,3-dioxan-5-ylidene)methylamino)benzene-sulfonamide (2c)] showed a pIC50 (Carbonic anhydrase 1) of 5.18 and a pIC50 (Carbonic anhydrase 2) of 4.73.
